# From patent US12440493B2, “Combination therapy for treating cancer comprising substituted piperazines” (Eli Lilly and Company, priority 2020, dated 2025)
# Where “and” joins values, the source holds several entries; their conditions need not be identical. Equal values may be shown once.
# Key:
# [1] = test system: IDH1(R132H) primary human AML cells; experiment: AML clearance in peripheral blood (flow cytometry, % hCD33+hCD45+ of total white cells), human AML PDx models in NSG mice; type: in vivo; details: for AML clearance (% hCD33 + hCD45+ (of total white cells)): 50 mg/kg Midostaurin, QD, PO, each value one animal, 50 mg/kg; for % peripheral blood AML cells (treatment group value): group F: midostaurin (50 mg/kg)
# Protocol: (§1) Compounds and Formulation. For in vivo studies, each test article is prepared at an appropriate concentration with vehicle. […] Compound A is prepared fresh at the appropriate concentrations with vehicle every 7 days and stored at 4° C. between doses. […] Cytarabine is prepared fresh weekly by dilution with sterile saline from stock solution of Cytarabine (injection 20 mg/mL, (Pfizer injectables')). Azacitidine (Sigma, Lot #MKBR7212) is formulated in sterile water and is prepared fresh daily immediately before dosing. In vivo human AML PDx models. […] Two models are used in the studies: […] As needed, splenocytes from tumor-bearing mice are used to propagate and expand the models, as described. Each test article is prepared as described above at an appropriate concentration with vehicle to give animals the doses tested in this study at a dosing volume of 10 μL/gram body weight. Mice receiving Compound A (PO, QD) are treated at the indicated doses for the duration of the study. The combination agents are dosed as follows: […] Treated mice are assessed in comparison to vehicle treated and naïve (non-tumor bearing) control mice. Body weight is recorded twice per week. […] AML PDx model propagation. […] Spleens are processed and splenocytes isolated as described below. Two hundred μL per subject of the splenocyte prep is injected IV (intravenous, tail vein) into recipient NSG mice. […] Once engraftment is confirmed, the mice are monitored biweekly until ready to be put on study. […] Submandibular blood is collected. Spleen/Splenocyte Processing and Prep. After excision, a spleen is weighed, and […] is placed in a standard sterile 15 mL polypropylene conical tube containing PBS, and placed on ice. […] The spleen is placed in ice cold sterile PBS in a 15 mL collection tube. The spleen is removed from the collection tube and placed in a 100 micron 50 mL conical tube cell strainer (BD Falcon #352360). The spleen is processed by gentle rubbing of the spleen tissue against the surface of the cell strainer with the end of a 5 mL syringe plunger in a circular motion. The surface of the strainer is rinsed with 10 mL room temperature sterile DPBS (HyClone SH30028) 3 times during the process. […] The cell pellet is collected by centrifugation (300×g) and washed three times with 30 mL sterile DPBS. The cells are counted and resuspended in DPBS at the desired implant concentration. Bone Marrow Collection. […] Flow cytometry analysis of human white cells. Submandibular blood samples from in vivo studies are collected. Fluor-conjugated antibody stains are added according to the manufacturer's instructions (anti-human CD33-PE (clone WM53, BD Cat #555450), anti-human CD14-APC (clone MφpP9, BD Cat #340436), anti-human CD15-V450 (clone HI98, BD Cat #561584), anti-human CD117-BV421 (clone YB5.B8, BD Cat #562434), anti-human […]7 (clone ICRF44, BD Cat #557754), anti-human […]7 (clone HI30, BD Cat #557748), and anti-human CD3-FITC (clone SK7, BD Cat #340542)). The samples are incubated for 30 minutes at room temperature, protected from light. After the incubation, 1.5 mL 1×BD Lyse/Fix (37° C., (BD #558049)) is added to each sample and incubated for 12 minutes at room temperature. The tubes are centrifuged at 300×g for 7 minutes. BD Lyse/Fix solution is aspirated and the cell pellet washed with stain/wash buffer 3 times (1 wash step consisted of: pellet resuspended in 3 mL stain/wash buffer, centrifuged at 300×g, aspirated wash). Fixed cells are then resuspended in 300 to 400 μL stain/wash buffer. Samples are analyzed on a Becton Dickinson FACSVerse Flow cytometer (Cat #651155 Serial #Z6511550447) using standard flow cytometry principles and techniques. Samples are analyzed on the same day as they are stained and fixed. Population gating and data analysis of percent population are performed in the FACSuite software on the FACSVerse cytometer. Percent population values from the data analysis are plotted in Graphpad Prism or in JMP13. […]
# [2] = test system: IDH1(R132H) primary human AML cells; experiment: AML cell differentiation in blood (flow cytometry, % hCD33+hCD11b+ of hCD45+ cells), human AML PDx models in NSG mice; type: in vivo; details: for AML cell differentiation (% hCD33 + hCD11b+ (of hCD45+ cells)): F: 50 mg/kg Midostaurin, QD, PO, one animal
# Protocol: as §1
# [3] = test system: IDH1(R132H) primary human AML cells; experiment: Bone marrow AML clearance (flow cytometry), human AML PDx models in NSG mice; type: in vivo
# Protocol: as §1
# 2-HG production = experiment: Plasma 2-HG inhibition (LC-MS metabolite analysis in plasma of AML PDx model); type: in vivo, human
# [4] = 50 mg/kg Midostaurin, QD, PO, each line one animal
# [5] = plasma, F: 50 mg/kg Midostaurin, QD, PO, one line per animal
smiles,measurement,setting,value
"CO[C@@H]1[C@H](N(C)C(=O)c2ccccc2)C[C@H]2O[C@]1(C)n1c3ccccc3c3c4c(c5c6ccccc6n2c5c31)C(=O)NC4 [Midostaurin, reference compound]",AML clearance (% hCD33 + hCD45+ (of total white cells)),[1]; Treatment day 7,10.05% and 3.62% and 8.05% and 11.35% and 2.53%
same,AML clearance (% hCD33 + hCD45+ (of total white cells)),[1]; Treatment day 23,6.24% and 3.75% and 7.09% and 2.63% and 0.84%
same,AML clearance (% hCD33 + hCD45+ (of total white cells)),[1]; Treatment day 36,3.7% and 1.83% and 4.68% and 2.15% and 0.28%
same,AML clearance (% hCD33 + hCD45+ (of total white cells)),[1]; Treatment day 50,2.21% and 0.76% and 3.72% and 1.29% and 0.21%
same,AML clearance (% hCD33 + hCD45+ (of total white cells)),[1]; Treatment day 64,7.01% and 2.16% and 3.93% and 4.84% and 0.18%
same,AML clearance (% hCD33 + hCD45+ (of total white cells)),[1]; Treatment day 78,18.03% and 2.94% and 8.24% and 14.27% and 0.14%
same,AML clearance (% hCD33 + hCD45+ (of total white cells)),[1]; Treatment day 92,35.38% and 4.09% and 14.55% and 30.48% and 0.86%
same,AML clearance (% hCD33 + hCD45+ (of total white cells)),[1]; Treatment day −8,7.94% and 8.17% and 6.23% and 2.27%
same,% peripheral blood AML cells (treatment group value),"[1]; day 50, vehicle 32%",1.1%
same,% peripheral blood AML cells (treatment group value),"[1]; day 64, vehicle 67%",2.2%
same,% peripheral blood AML cells (treatment group value),"[1]; day 78, vehicle 129%",3.9%
same,AML cell differentiation (% hCD33 + hCD11b+ (of hCD45+ cells)),[2]; treatment day 7,25.48% and 12.53% and 9% and 38.3% and 27.14%
same,AML cell differentiation (% hCD33 + hCD11b+ (of hCD45+ cells)),[2]; treatment day 23,25.27% and 17.13% and 9.1% and 36.3% and 25.56%
same,AML cell differentiation (% hCD33 + hCD11b+ (of hCD45+ cells)),[2]; treatment day 36,45.81% and 34.03% and 21.16% and 47.53% and 25.64%
same,AML cell differentiation (% hCD33 + hCD11b+ (of hCD45+ cells)),[2]; treatment day 50,43.86% and 28.75% and 20.78% and 40% and 30.3%
same,AML cell differentiation (% hCD33 + hCD11b+ (of hCD45+ cells)),[2]; treatment day −8 (before treatment),19.58% and 13.81% and 18.12% and 19.57%
same,% AML cell differentiation (treatment group value),"[2]; day 50, group F: midostaurin (50 mg/kg), vehicle 28%",33%
same,Bone Marrow AML Clearance: % hCD33 + hCD45+ (% of white cells),[3]; [4],51.84% and 6.3% and 22.34% and 59.24% and 25.84%
same,Bone Marrow AML Clearance: % hCD45+ (% of white cells),[3]; [4],51.3% and 6.25% and 22.22% and 58.42% and 25.71%
same,% human AML cells in bone marrow (of white cells; lower = more clearance),"[3]; group F: midostaurin (50 mg/kg), vehicle 86%",26%
same,% plasma 2-HG (treatment group value),"2-HG production; group F: midostaurin (50 mg/kg), vehicle 100%",70%
same,2-HG,2-HG production; [5],14.919 µM and 11.402 µM and 7.494 µM and 21.55 µM and 10.075 µM
same,Naive Subtracted 2-HG,2-HG production; [5],12.51 µM and 8.993 µM and 5.085 µM and 19.141 µM and 7.666 µM
